Read-outs that look alike come from different tables or passages of the source.
Experiments:
[1] = tested on: panelists (mouth, mucosa); assay: Sensory studies in aqueous solution (trained panel, swilling in the mouth); assay type: in vivo, human; settings: 40 ppm in aqueous solution; for time of max cooling / Max. cooling: 20 mL swilled 60 seconds; for Max. cooling / Cooling after 1 h: averaged panel score on scale 0 to 10; for Cooling after 1 h: 1 h after swilling
Protocol: The compounds as listed below in Table 2 were dissolved at a concenteration of 1 wt-% in propylene glycol. These solutions were then dispensed in appropriate quantities into deionized water containing 0.5 wt-% Poloxamer 407 (which is a hydrophilic non-ionic surfactant, e.g., commercially available from SigmaAldrich) and 0.25 wt-% Cremaphor® RH40 (obtained from BASF) as solubilizer, to obtain the desired final concentration of 40 ppm (parts per milion) of the respective compound.
A trained group of panelists evaluated the aqueous solutions containing test compound by swilling 20 mL of the solution in the mouth for 60 seconds, followed by spitting, without rinsing the mouth afterwards for the duration of the evaluation. Panelists evaluated and recorded the cooling performance as well as other sensorial and organoleptic attributes at different timepoints over a period of two hours. Cooling performance was rated on a scale from 0 to 10 with 0 being no effect and 10 being freezing. Scores were averaged for all panelists and the cooling intensity qualified as “N” for “none” (score of 0), “L” for “low” (score above 0, up to 1), “M” for “medium” (score above 1, up to 4), “S” for “strong” (score above 4, up to 8) and “E” for “extreme” (score above 8), which are provided in Table 2. […] All tasted samples developed cooling sensation starting during swilling (almost immediately upon contact with the mucosa) and before expectorating.

hTRPM8 = target: T1, hTRPM8 (Homo sapiens, UniProt Q7Z2W7); assay: Assay on TRPM8 modulators: calcium imaging (Fluo-4, Flexstation) in HEK293 cell line stably expressing hTRPM8; assay type: cell-based
T1 construct: expressed in transfected cells
T1 sequence (Q7Z2W7 whole entry): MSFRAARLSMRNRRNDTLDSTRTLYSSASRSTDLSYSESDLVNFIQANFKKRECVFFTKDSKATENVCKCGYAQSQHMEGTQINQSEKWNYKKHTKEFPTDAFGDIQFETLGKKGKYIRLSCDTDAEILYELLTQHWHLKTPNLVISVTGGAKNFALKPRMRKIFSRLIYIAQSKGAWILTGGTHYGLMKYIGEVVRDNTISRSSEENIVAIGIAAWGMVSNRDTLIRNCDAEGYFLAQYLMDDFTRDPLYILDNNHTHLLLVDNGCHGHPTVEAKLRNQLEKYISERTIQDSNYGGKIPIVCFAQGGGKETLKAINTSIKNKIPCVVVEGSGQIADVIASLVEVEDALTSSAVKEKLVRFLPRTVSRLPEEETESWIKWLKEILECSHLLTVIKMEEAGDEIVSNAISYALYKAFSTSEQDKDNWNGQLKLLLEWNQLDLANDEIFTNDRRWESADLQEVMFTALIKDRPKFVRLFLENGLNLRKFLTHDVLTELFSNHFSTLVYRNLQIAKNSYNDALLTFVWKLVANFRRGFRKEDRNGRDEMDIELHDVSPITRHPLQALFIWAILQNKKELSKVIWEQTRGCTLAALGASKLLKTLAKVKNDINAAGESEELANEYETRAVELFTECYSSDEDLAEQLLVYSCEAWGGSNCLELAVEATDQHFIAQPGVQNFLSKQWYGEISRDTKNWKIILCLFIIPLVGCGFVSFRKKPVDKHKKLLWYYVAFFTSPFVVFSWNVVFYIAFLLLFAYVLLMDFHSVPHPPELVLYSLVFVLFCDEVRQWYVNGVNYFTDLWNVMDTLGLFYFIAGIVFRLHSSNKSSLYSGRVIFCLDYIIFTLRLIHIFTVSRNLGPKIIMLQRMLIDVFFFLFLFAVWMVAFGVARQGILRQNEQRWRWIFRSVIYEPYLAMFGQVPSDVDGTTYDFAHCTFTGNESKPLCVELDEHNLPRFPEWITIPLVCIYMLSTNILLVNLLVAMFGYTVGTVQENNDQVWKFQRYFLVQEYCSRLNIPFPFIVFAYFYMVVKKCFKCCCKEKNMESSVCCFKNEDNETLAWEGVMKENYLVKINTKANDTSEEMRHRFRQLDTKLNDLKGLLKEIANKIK
Procedure, shortened: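 Calcium influx monitored by Fluo-4 (2.7 μM with […] probenecid, 1 h 37 °C loading) in HEK293 cells stably expressing hTRPM8, in HEPES buffer pH 7.4 with 2 mM CaCl2. Fluorescence read 15 s before and 105 s after adding serial compound dilutions. Maximal activation relative to solvent and 31.6 μM menthol; EC50 from sigmoidal fit.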

panelists (mouth) = assay: Sensory studies in model dentifrice (trained panel, tooth brushing); assay type: in vivo, human; settings: 100 ppm in model unflavored dentifrice; for time of max cooling / Max. cooling: 1 g brushed 60 seconds; for Max. cooling / Cooling after 1 h: averaged panel score on scale 0 to 10; for Cooling after 1 h: 1 h after brushing
Protocol: The compounds listed in Table 3 were dissolved at a concenteration of 1 wt-% in propylene glycol. These solutions were then dispersed in appropriate quantities to obtain the desired final concentration of 100 ppm (parts per milion) of the test compound into a model, unflavored dentifrice, the formula of which is given below (ingredients obtained from the suppliers respectively indicated in parenthesis).
A trained group of panelists evaluated the dentifrice containing a compound of formula (I), by brushing their teeth with 1 g of the dentifrice using a toothbrush for 60 seconds, followed by spitting, without rinsing the mouth afterwards for the duration of the evaluation. Panelists evaluated and recorded the cooling performance as well as other sensorial and organoleptic attributes at different timepoints over a period of two hours. Cooling performance was rated on a scale from 0 to 10 with 0 being no effect and 10 being freezing. Scores were averaged for all panelists and the cooling intensity qualified as “N” for “none” (score of 0), “L” for “low” (score above 0, up to 1), “M” for “medium” (score above 1, up to 4), “S” for “strong” (score above 4, up to 8) and “E” for “extreme” (score above 8), which are summarized below in Table 3. […] All tasted samples developed cooling sensation starting during brushing, before expectorating.

[2] = HEK293 cells stably expressing hTRPM8, calcium influx, sigmoidal dose-response fit, read-out: EC50

Structure (SMILES) | EC50 (hTRPM8; [2]) [nM] | time of max cooling [1] [min] | Max. cooling [1] | Cooling after 1 h [1] | time of max cooling (panelists (mouth)) [min] | Max. cooling (panelists (mouth)) | Cooling after 1 h (panelists (mouth)) | EC50 (hTRPM8) [nM]
COc1ccccc1[C@H]1C[C@@H]2[C@@H]([C@@H](C)C1)N(C(C)C)OC2(C)C (racemic) [Compound 66, rac-(3aR,5R,7S,7aR)-1-isopropyl-5-(2-methoxyphenyl)-3,3,7-trimethyloctahydrobenzo[c]isoxazole] | < 50 | 20 | M (“M” for “medium” (score above 1, up to 4)) | M (“M” for “medium” (score above 1, up to 4)) | – | – | – | –
CCN1OC(C)(C)C2CC(CC=C(C)C)CC(C)C21 (racemic) [Compound 120, rac-(3aS,5S,7S,7aS)-1-ethyl-3,3,7-trimethy)-5-(3-methylbut-2-en-1-yl)octahydrobenzo[c]isoxazole] | 300 to 1000 | 10 | M (“M” for “medium” (score above 1, up to 4)) | L (“L” for “low” (score above 0, up to 1)) | – | – | – | –
CCC[C@@H]1CC[C@@H]2[C@@H](C1)C(C)(C)ON2C(C)C (racemic) [Compound 26, rac-(3aR,5R,7aR)-1-isopropyl-3,3-dimethyl-5-propyloctahydrobenzo[c]isoxazole] | 300 to 1000 | 10 | S (“S” for “strong” (score above 4, up to 8)) | M (“M” for “medium” (score above 1, up to 4)) | – | – | – | –
CC(C)=CC[C@H]1C[C@@H]2[C@@H]([C@@H](C)C1)N(C)OC2(C)C (racemic) [Compound 50, rac-(3aR,5R,7S,7aR)-1,3,3,7-tetramethyl-5-(3-methylbut-2-en-1-yl)octahydrobenzo[c]isoxazole] | – | 10 | M (“M” for “medium” (score above 1, up to 4)) | M (“M” for “medium” (score above 1, up to 4)) | – | – | – | 50 to 300
CC1=CC[C@H](C2CCC3C(C2)N(C)OC3(C)C)CC1 (stereo partly drawn) [Compound 7, 1,3,3-trimethyl-6-((R)-4-methylcyclohex-3-en-1-yl)octahydrobenzo[c]isoxazole] | 300 to 1000 | 10 | M (“M” for “medium” (score above 1, up to 4)) | L (“L” for “low” (score above 0, up to 1)) | – | – | – | –
CC1CC(C)C2C(C1)C(C)(C)ON2C (stereo not shown) [Compound 4, 1,3,3,5,7-pentamethyloctahydrobenzo[c]isoxazole] | 1000 to 35000 | 3 | M (“M” for “medium” (score above 1, up to 4)) | L (“L” for “low” (score above 0, up to 1)) | – | – | – | –
CCN1OC(C)(C)C2CC(C)(CC=C(C)C)CC(C)C21 (stereo not shown) [Compound 9, 1-ethyl-3,3,5,7-tetramethyl-5-(3-methylbut-2-en-1-yl)octahydrobenzo[c]isoxazole] | 50 to 300 | 10 | M (“M” for “medium” (score above 1, up to 4)) | M (“M” for “medium” (score above 1, up to 4)) | – | – | – | –
CC(C)=CCC1(C)CC(C)C2C(C1)C(C)(C)ON2C (stereo not shown) [Compound 1, 1,3,3,5,7-pentamethyl-5-(3-methylbut-2-en-1-yl)octahydrobenzo[c]isoxazole] | 300 to 1000 | 20 | M (“M” for “medium” (score above 1, up to 4)) | M (“M” for “medium” (score above 1, up to 4)) | – | – | – | –

Now from value to molecule, other results behind:

EC50 (hTRPM8; [2]) [nM] | Structure (SMILES) | time of max cooling [1] [min] | Max. cooling [1] | Cooling after 1 h [1] | time of max cooling (panelists (mouth)) [min] | Max. cooling (panelists (mouth)) | Cooling after 1 h (panelists (mouth)) | EC50 (hTRPM8) [nM]
< 50 | C[C@H]1C[C@@](C)(c2cccc(C#N)c2)C[C@@H]2[C@@H]1N(C)OC2(C)C (racemic) [Compound 124, rac-3-((3aR,5R,7S,7aR)-1,3,3,5,7-pentamethyloctahydrobenzo[c]isoxazol-5-yl)benzonitrile] | 5 | S (“S” for “strong” (score above 4, up to 8)) | M (“M” for “medium” (score above 1, up to 4)) | – | – | – | –
< 50 | C[C@H]1C[C@@](C)(c2ccc(F)cc2)C[C@@H]2[C@@H]1N(C)OC2(C)C (racemic) [Compound 102, rac-(3aR,5R,7S,7aR)-5-(4-fluorophenyl)-1,3,3,5,7-pentamethyloctahydrobenzo[c]isoxazole] | 10 | S (“S” for “strong” (score above 4, up to 8)) | M (“M” for “medium” (score above 1, up to 4)) | 10 | M (“M” for “medium” (score above 1, up to 4)) | M (“M” for “medium” (score above 1, up to 4)) | –
50 to 300 | C[C@H]1C[C@@](C)(c2ccccc2)C[C@@H]2[C@@H]1N(C)OC2(C)C (racemic) [Compound 48, rac-(3aR,5R,7S,7aR)-1,3,3,5,7-pentamethyl-5-phenyloctahydrobenzo[c]isoxazole] | 10 | S (“S” for “strong” (score above 4, up to 8)) | M (“M” for “medium” (score above 1, up to 4)) | 5 | M (“M” for “medium” (score above 1, up to 4)) | L (“L” for “low” (score above 0, up to 1)) | –
50 to 300 | CC(C)N1OC(C)(C)[C@@H]2C[C@H](c3ccccc3)C[C@H](C)[C@H]21 (racemic) [Compound 64, rac-(3aR,5R,7S,7aR)-1-isopropyl-3,3,7-trimethyl-5-phenyloctahydrobenzo[c]isoxazole] | 10 | M (“M” for “medium” (score above 1, up to 4)) | M (“M” for “medium” (score above 1, up to 4)) | – | – | – | –
< 50 | C[C@H]1C[C@@](C)(c2cc(F)cc(F)c2)C[C@@H]2[C@@H]1N(C)OC2(C)C (racemic) [Compound 85, rac-(3aR,5R,7S,7aR)-5-(3,5-difluorophenyl)-1,3,3,5,7-pentamethyloctahydrobenzo[c]isoxazole] | 10 | M (“M” for “medium” (score above 1, up to 4)) | M (“M” for “medium” (score above 1, up to 4)) | – | – | – | –
< 50 | Cc1ccccc1[C@@]1(C)C[C@@H]2[C@@H]([C@@H](C)C1)N(C)OC2(C)C (racemic) [Compound 46, rac-(3aR,5R,7S,7aR)-1,3,3,5,7-pentamethyl-5-(o-tolyl)octahydrobenzo[c]isoxazole] | 10 | S (“S” for “strong” (score above 4, up to 8)) | M (“M” for “medium” (score above 1, up to 4)) | 20 | S (“S” for “strong” (score above 4, up to 8)) | M (“M” for “medium” (score above 1, up to 4)) | –
< 50 | COc1ccccc1[C@H]1C[C@@H]2[C@@H]([C@@H](C)C1)N(C)OC2(C)C (racemic) [Compound 83, rac-(3aR,5R,7S,7aR)-5-(2-methoxyphenyl)-1,3,3,7-tetramethyloctahydrobenzo[c]isoxazole] | 10 | S (“S” for “strong” (score above 4, up to 8)) | L (“L” for “low” (score above 0, up to 1)) | – | – | – | –
< 50 | Cc1ccc(C#N)cc1[C@@]1(C)C[C@@H]2[C@@H]([C@@H](C)C1)N(C)OC2(C)C (stereo in doubt) [Compound 135, rac-4-methyl-3-((3aR,5R,7S,7aR)-1,3,3,5,7-pentamethyloctahydrobenzo[c]isoxazol-5-yl)benzonitrile] | 10 | E (“E” for “extreme” (score above 8)) | M (“M” for “medium” (score above 1, up to 4)) | 5 | S (“S” for “strong” (score above 4, up to 8)) | M (“M” for “medium” (score above 1, up to 4)) | –

Source: patent US20230002334A1, “TRPM8 MODULATORS” (Givaudan SA, priority 2019, published 2023)
